Experiments:
Format in all cases: functional
NCI-H522 = test: Growth inhibition of human NCI-H522 cells assessed as cell growth at 15 ug/ml; conditions: read-out: Activity
[1] = Growth inhibition of human MOLT4 cells assessed as cell growth at 15 ug/ml; conditions: MOLT-4, read-out: Activity
[2] = Growth inhibition of human LOXIMVI cells assessed as cell growth at 15 ug/ml; conditions: LOX IMVI, read-out: Activity
T47D = test: Growth inhibition of human T47D cells assessed as cell growth at 15 ug/ml; conditions: read-out: Activity

Compound: CC(C)OC(=O)[C@H](C)NP(=O)(OC[C@H]1O[C@@H](n2cnc3sc4c(=O)[nH]c(N)nc4c32)C(F)(F)[C@@H]1O)Oc1ccccc1 (some centres not stated)
- growth at 15 µg/mL (NCI-H522): 65.6%
- growth at 15 µg/mL [1]: 94%
- growth at 15 µg/mL [2]: 74.1%
- growth at 15 µg/mL (T47D): 64.5%

Compound: Nc1nc2c(sc3ncn([C@@H]4O[C@H](CO)[C@@H](O)C4(F)F)c32)c(=O)[nH]1
- growth at 15 µg/mL (NCI-H522): 34%
- growth at 15 µg/mL [1]: 13.9%
- growth at 15 µg/mL [2]: 25.6%
- growth at 15 µg/mL (T47D): 10.5%

Compound: CC(C)OC(=O)[C@H](C)NP(=O)(OC[C@H]1O[C@@H](n2cnc3sc4c(=O)[nH]c(N)nc4c32)C(F)(F)[C@@H]1OP(=O)(N[C@@H](C)C(=O)OC(C)C)Oc1ccccc1)Oc1ccccc1 (some centres not stated)
- growth at 15 µg/mL (NCI-H522): 77.7%
- growth at 15 µg/mL [1]: 109%
- growth at 15 µg/mL [2]: 102%
- growth at 15 µg/mL (T47D): 87.2%
